Values quoted from earlier work in patent US20220160670A1, “COMPOSITION COMPRISING L-CARNITINE FOR THE TREATMENT OF MALE INFERTILITY” (LABORATOIRE DES GRANIONS, priority 2017, published 2022).

What was measured:
[1] = test system: total forward motility of spermatozoa; details: treatment of 6 months; 3 g/day L-carnitine, 3 g/day L-acetylcarnitine, or 2 g/day + 1 g/day combined
[2] = test system: number and total forward motility of spermatozoa; details: 2 g/day for 2*2 months; patients with 10 to 20 million/ml and total mobility 10% to 30% at inclusion

Row | SMILES | effect on total forward motility of spermatozoa [1] | effect on number of spermatozoa [2] | effect on total forward motility of spermatozoa [2]
1 | CC(=O)O[C@H](CC(=O)[O-])C[N+](C)(C)C [L-acetylcarnitine] | significantly increases | – | –
2 | C[N+](C)(C)C[C@H](O)CC(=O)[O-] [L-carnitine] | significantly increases | increase | increase
